Values joined by “and” are separate entries in the source; they are usually repeats but may differ in a detail not shown here. Equal entries are not always repeated. Toxic doses and inconclusive results are not listed.
Tested on: P388 leukemia ip, CD2F1 mice, survival T/C
Assay: NCI In Vivo Anticancer Drug Screen. Data for tumor model P388 Leukemia (intraperitoneal) in CD2F1 (CDF1) mice
Conditions: endpoint: median survival time, higher = longer survival
Outline: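 Mice carrying the transplanted tumor received test compound or vehicle. Survival was recorded in each group, and the value is the treated-group measurement divided by that of the vehicle-treated control group.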

[1] = dose: 12.5 mg/kg/injection, schedule: Q01DX009 (ip), vehicle: other
[2] = dose: 25.0 mg/kg/injection, schedule: Q01DX009 (ip), vehicle: other
[3] = dose: 50.0 mg/kg/injection, schedule: Q01DX009 (ip), vehicle: other
[4] = dose: 100.0 mg/kg/injection, schedule: Q01DX009 (ip), vehicle: other
[5] = dose: 60.0 mg/kg/injection, schedule: Q01DX005 (ip), vehicle: saline with Tween-80
[6] = dose: 50.0 mg/kg/injection, schedule: Q01DX009 (ip), vehicle: Klucel (hydroxypropylcellulose) (HPC)
[7] = dose: 100.0 mg/kg/injection, schedule: Q01DX009 (ip), vehicle: Klucel (hydroxypropylcellulose) (HPC)
[8] = dose: 200.0 mg/kg/injection, schedule: Q01DX009 (ip), vehicle: Klucel (hydroxypropylcellulose) (HPC)
[9] = dose: 50.0 mg/kg/injection, schedule: Q01DX005 (ip), vehicle: Klucel (hydroxypropylcellulose) (HPC)
[10] = dose: 100.0 mg/kg/injection, schedule: Q01DX005 (ip), vehicle: Klucel (hydroxypropylcellulose) (HPC)
[11] = dose: 200.0 mg/kg/injection, schedule: Q01DX005 (ip), vehicle: Klucel (hydroxypropylcellulose) (HPC)
[12] = dose: 100.0 mg/kg/injection, schedule: Q01DX001 (ip), vehicle: saline with Tween-80
[13] = dose: 200.0 mg/kg/injection, schedule: Q01DX001 (ip), vehicle: saline with Tween-80
[14] = dose: 400.0 mg/kg/injection, schedule: Q01DX001 (ip), vehicle: saline with Tween-80
[15] = dose: 50.0 mg/kg/injection, schedule: Q01DX009 (ip), vehicle: saline with Tween-80
[16] = dose: 100.0 mg/kg/injection, schedule: Q01DX009 (ip), vehicle: saline with Tween-80
[17] = dose: 3.13 mg/kg/injection, schedule: Q01DX009 (ip), vehicle: other
[18] = dose: 6.25 mg/kg/injection, schedule: Q01DX009 (ip), vehicle: other
[19] = dose: 200.0 mg/kg/injection, schedule: Q01DX009 (ip), vehicle: saline with Tween-80
[20] = dose: 120.0 mg/kg/injection, schedule: Q01DX005 (ip), vehicle: saline with Tween-80
[21] = dose: 25.0 mg/kg/injection, schedule: Q01DX009 (ip), vehicle: Klucel (hydroxypropylcellulose) (HPC)

COC(=O)/C=N/NS(=O)(=O)c1ccc(C)cc1 was tested, and the T/C [1] was 102 % of control, the T/C [2] was 102 % of control and the T/C [3] was 100 % of control. For the same molecule, the T/C [4] was 100 % of control.

For CN(C)c1ccc(C2c3c(oc4ccccc4c3=O)Oc3oc4ccccc4c(=O)c32)cc1, the T/C (dose: 15.0 mg/kg/injection, schedule: Q01DX005 (ip), vehicle: saline with Tween-80) was 98 % of control, the T/C (dose: 30.0 mg/kg/injection, schedule: Q01DX005 (ip), vehicle: saline with Tween-80) was 100 % of control and the T/C [5] was 89 % of control.

In the case of O=C1OC(c2ccccc2)(c2ccccc2)CC1C=C(c1ccccc1)c1ccccc1 (centres undefined), the T/C (dose: 25.0 mg/kg/injection, schedule: Q01DX005 (ip), vehicle: saline with Tween-80) is reported as 92 % of control, the T/C (dose: 50.0 mg/kg/injection, schedule: Q01DX005 (ip), vehicle: saline with Tween-80) is reported as 89 % of control and 94 % of control and the T/C (dose: 100.0 mg/kg/injection, schedule: Q01DX005 (ip), vehicle: saline with Tween-80) is reported as 89 % of control.

In the case of CC12CC3CC(C)(C1)CC(C(Cl)C(=O)NC(C)(C)C)(C3)C2 (centres undefined), the T/C [6] is reported as 97 % of control, the T/C [7] is reported as 100 % of control and the T/C [8] is reported as 93 % of control.

In the case of CCCCCOC(=O)c1ccccc1OP(=O)(N(C)C)N(C)C, the T/C (dose: 50.0 mg/kg/injection, schedule: Q01DX005 (ip), vehicle: saline) is reported as 103 % of control and the T/C (dose: 100.0 mg/kg/injection, schedule: Q01DX005 (ip), vehicle: saline) is reported as 110 % of control.

In the case of COC(=O)CCSC(=O)Nc1ccc(C)cc1, the T/C [9] is reported as 101 % of control, the T/C [10] is reported as 100 % of control and the T/C [11] is reported as 105 % of control.

In the case of O=C(S)CC(O)(c1ccccc1)c1ccccc1, the T/C (dose: 100.0 mg/kg/injection, schedule: Q04DX003 (ip), vehicle: Klucel (hydroxypropylcellulose) (HPC)) is reported as 105 % of control, the T/C (dose: 200.0 mg/kg/injection, schedule: Q04DX003 (ip), vehicle: Klucel (hydroxypropylcellulose) (HPC)) is reported as 105 % of control and the T/C (dose: 400.0 mg/kg/injection, schedule: Q04DX003 (ip), vehicle: Klucel (hydroxypropylcellulose) (HPC)) is reported as 101 % of control.

For CCCCCCCCCCC(=O)C(=O)c1ccc(O)c(C)c1O, the T/C [6] was 100 % of control, the T/C [7] was 99 % of control and the T/C [8] was 110 % of control.

In the case of N#CN=[N+]([O-])c1ccccc1Cl, the T/C (dose: 3.12 mg/kg/injection, schedule: Q01DX009 (ip), vehicle: Klucel (hydroxypropylcellulose) (HPC)) is reported as 100 % of control, the T/C (dose: 6.25 mg/kg/injection, schedule: Q01DX009 (ip), vehicle: Klucel (hydroxypropylcellulose) (HPC)) is reported as 107 % of control and the T/C (dose: 6.25 mg/kg/injection, schedule: Q04DX003 (ip), vehicle: Klucel (hydroxypropylcellulose) (HPC)) is reported as 91 % of control. The T/C (dose: 12.5 mg/kg/injection, schedule: Q01DX009 (ip), vehicle: Klucel (hydroxypropylcellulose) (HPC)) was 109 % of control, the T/C (dose: 12.5 mg/kg/injection, schedule: Q04DX003 (ip), vehicle: Klucel (hydroxypropylcellulose) (HPC)) was 100 % of control and the T/C (dose: 25.0 mg/kg/injection, schedule: Q04DX003 (ip), vehicle: Klucel (hydroxypropylcellulose) (HPC)) was 91 % of control.

COC(=O)Cn1/c(=N\N=C(/C)c2ccccc2)sc2ccccc21 was tested, and the T/C [12] was 102 % of control, the T/C [13] was 99 % of control and the T/C [14] was 99 % of control.

CCOC(=O)C(CCBr)SC (centres undefined) was tested, and the T/C (dose: 25.0 mg/kg/injection, schedule: Q01DX009 (ip), vehicle: saline with Tween-80) was 99 % of control, the T/C [15] was 100 % of control and the T/C [16] was 99 % of control.

In the case of [O-]c1n[n+](-c2ccccc2)no1, the T/C [17] is reported as 97 % of control, the T/C [18] is reported as 96 % of control and the T/C [1] is reported as 109 % of control. For the same molecule, the T/C [2] was 101 % of control.

CC(=O)/C=C/c1ccc(O)cc1 was tested, and the T/C [15] was 110 % of control, the T/C [16] was 98 % of control and the T/C (dose: 100.0 mg/kg/injection, schedule: Q04DX003 (ip), vehicle: saline with Tween-80) was 105 % of control. The T/C [19] was 100 % of control, the T/C (dose: 200.0 mg/kg/injection, schedule: Q04DX003 (ip), vehicle: saline with Tween-80) was 113 % of control and the T/C (dose: 400.0 mg/kg/injection, schedule: Q04DX003 (ip), vehicle: saline with Tween-80) was 105 % of control.

In the case of CC1SC(c2ccc(Cl)cc2)N2C(=O)C(C)SC(c3ccc(Cl)cc3)N2C1=O (centres undefined), the T/C [15] is reported as 87 % of control and the T/C [16] is reported as 86 % of control.

In the case of Cc1c(NC(=O)Nc2ccc(F)cc2)c(=O)n(-c2ccccc2)n1C, the T/C [5] is reported as 114 % of control, the T/C [20] is reported as 99 % of control and the T/C (dose: 240.0 mg/kg/injection, schedule: Q01DX005 (ip), vehicle: saline with Tween-80) is reported as 96 % of control.

For Cc1nonc1-c1ccc2c(c1)OCO2, the T/C [21] was 110 % of control, the T/C [6] was 105 % of control and the T/C [7] was 106 % of control. The T/C [8] was 105 % of control.

For Cc1nc(C)c2c(C)[nH]c(-c3ccccc3)c2n1, the T/C (dose: 25.0 mg/kg/injection, schedule: Q04DX002 (ip), vehicle: Klucel (hydroxypropylcellulose) (HPC)) was 102 % of control, the T/C (dose: 50.0 mg/kg/injection, schedule: Q04DX002 (ip), vehicle: Klucel (hydroxypropylcellulose) (HPC)) was 101 % of control and the T/C (dose: 100.0 mg/kg/injection, schedule: Q04DX002 (ip), vehicle: Klucel (hydroxypropylcellulose) (HPC)) was 108 % of control. The T/C (dose: 200.0 mg/kg/injection, schedule: Q04DX002 (ip), vehicle: Klucel (hydroxypropylcellulose) (HPC)) was 104 % of control.

For CC(C)(C)n1nc(C2CC2)cc1NC(=O)Nc1ccccc1, the T/C (dose: 30.0 mg/kg/injection, schedule: Q01DX005 (ip), vehicle: Klucel (hydroxypropylcellulose) (HPC)) was 99 % of control, the T/C (dose: 60.0 mg/kg/injection, schedule: Q01DX005 (ip), vehicle: Klucel (hydroxypropylcellulose) (HPC)) was 98 % of control and the T/C (dose: 120.0 mg/kg/injection, schedule: Q01DX005 (ip), vehicle: Klucel (hydroxypropylcellulose) (HPC)) was 98 % of control.

CN(C)c1ccc(/C=C/c2nc3ccccc3s2)cc1 was tested, and the T/C [21] was 108 % of control, the T/C [6] was 99 % of control and the T/C [7] was 99 % of control. For the same molecule, the T/C [8] was 98 % of control.

O=C(CCl)Nc1cc2ccccc2oc1=O was tested, and the T/C [5] was 105 % of control and the T/C [20] was 109 % of control.

With COc1ccc2nc3cc(Cl)ccc3c(Nc3ccc(NC(C)=O)cc3)c2n1 the T/C [18] was 106 % of control, the T/C [1] was 102 % of control and the T/C [2] was 100 % of control. The T/C [3] was 96 % of control and the T/C [4] was 99 % of control.

For COc1cccc2c1C(=O)c1c(O)c3c(c(O)c1C2=O)CC(O)(C(=O)COc1ccccc1)CC3O (centres undefined), the T/C (dose: 1.56 mg/kg/injection, schedule: Q01DX009 (ip), vehicle: other) was 108 % of control, the T/C [17] was 106 % of control and the T/C [18] was 105 % of control. The T/C [1] was 97 % of control and the T/C [2] was 91 % of control.

For COc1ccc2c(c1)C1(C)CCN(C)CC(C1)C2O (centres undefined), the T/C [15] was 96 % of control and 104 % of control, the T/C [16] was 91 % of control and 87 % of control and the T/C [19] was 117 % of control.

For COC(=O)c1nc(OC)nc(OC)c1C#CCOC1CCCCO1 (centres undefined), the T/C (dose: 12.5 mg/kg/injection, schedule: Q01DX009 (ip), vehicle: distilled water + Tween-80) was 92 % of control, the T/C (dose: 25.0 mg/kg/injection, schedule: Q01DX009 (ip), vehicle: distilled water + Tween-80) was 108 % of control and the T/C (dose: 50.0 mg/kg/injection, schedule: Q01DX009 (ip), vehicle: distilled water + Tween-80) was 94 % of control. For the same molecule, the T/C (dose: 100.0 mg/kg/injection, schedule: Q01DX009 (ip), vehicle: distilled water + Tween-80) was 94 % of control.

For CC(=O)OC1=NC(C)c2c1cc(OC(C)=O)nc2OC(C)=O (centres undefined), the T/C [6] was 104 % of control, the T/C [7] was 102 % of control and the T/C [8] was 102 % of control.

With Cc1ccc(C(=O)/C(N)=C\c2c[nH]c3ccccc23)cc1 the T/C [12] was 104 % of control, the T/C [13] was 100 % of control and the T/C [14] was 98 % of control.

In the case of Nc1cc2nc3ccccc3oc-2cc1=O, the T/C [9] is reported as 105 % of control, the T/C [10] is reported as 101 % of control and the T/C [11] is reported as 97 % of control.

In the case of CCCCCCCCC#CCO, the T/C [5] is reported as 86 % of control and the T/C [20] is reported as 86 % of control.

CCNc1nncs1 was tested, and the T/C (dose: 25.0 mg/kg/injection, schedule: Q01DX009 (ip), vehicle: saline) was 113 % of control, the T/C (dose: 100.0 mg/kg/injection, schedule: Q01DX009 (ip), vehicle: saline) was 161 % of control and the T/C (dose: 125.0 mg/kg/injection, schedule: Q01DX009 (ip), vehicle: saline) was 162 % of control.

Reference: PubChem BioAssay AID330 (DTP/NCI, 2004)
